Results taken from patent US7544497B2, “Compositions for manipulating the lifespan and stress response of cells and organisms” (President and Fellows of Harvard College, priority 2003, dated 2009).

Experiments:
C. elegans = C. elegans lifespan assay; format: in vivo
Experimental: Thus, the presence of resveratrol in the growth media of C. elegans extends their lifespan.
Bristol N2 (Caenorhabditis Genetics Center) was used as the wild-type strain. The sir-2.1 mutant strain was generated by backcrossing VC199 (sir-2.1 (ok434)) to N2 four times. Cultures were grown on standard NGM media and maintained on E. coli strain OP50. For the lifespan assays, synchronized animals were transferred to treatment plates as young adults (2 d after hatching, day 0 of assay), and were transferred to fresh treatment plates every 2 days for the first 6 to 8 days of the assay. […] For some lifespan trials, heat-killed OP50 were used as a food source. OP50 cultures were heated to 65° C. for 30 minutes, then pelleted and resuspended in 1/10 volume in S Basal supplemented with 10 mM MgSO4. In all assays, worms were monitored daily for mortality by gently probing with a platinum pick. Assays were performed at 24° C.

Human 293 cells = experiment: Survival of 293 cells (Coulter counter); format: cell-based; details: 50 micromolar
Experimental: Human 293 were grown to exponential phase under standard conditions and subjected to a dose of compound (50 micromolar) for 96 hours. The number of live cells each time point was counted using a Coulter counter.

D. melanogaster = D. melanogaster adult survival assay; format: in vivo
Experimental: Survival assays were conducted independently with adult D. melanogaster in two laboratories. In the first laboratory, all trials used an yw marked wild-type strain. […] Newly eclosed adults were placed in 1L demography cages with approximately 75 males and 75 females. Three to four replicate 1L demography cages were used for each treatment group in each trial. Every two days, dead flies were removed and scored, and food vials were replenished. Food vials contained cornmeal-sugar-yeast diet with SAF yeast as either 2% or 3% by weight. […] Fresh stock solutions and adult media were prepared weekly. In the second laboratory, lifespan trials were conducted with the wild type strain Canton-S, dSir2^4.5 and […], University of Oregon), […], Stockholm University, Sweden), and dSir2^KG00871 (Drosophila Stock Center, Bloomington, Ind.). Larvae for all tests were reared on standard cornmeal-sugar-yeast diet. […] In all trials, 20 males with 20 females were placed into each of 10 vials/treatment group. Every two days, flies were passed into new vials and dead flies were counted. […] Fresh stock solution and adult media was prepared weekly.

rDNA recombination = experiment: Ribosomal DNA recombination frequency (loss of ADE2 marker); format: cell-based, S. cerevisiae; details: SIR2-dependent
recombinant GST-Sir2 = recombinant GST-Sir2 (Saccharomyces cerevisiae, UniProt P06700); experiment: Sir2 deacetylation assay; format: biochemical, S. cerevisiae; details: in vitro dose-response
Chain of recombinant GST-Sir2 (P06700 whole entry): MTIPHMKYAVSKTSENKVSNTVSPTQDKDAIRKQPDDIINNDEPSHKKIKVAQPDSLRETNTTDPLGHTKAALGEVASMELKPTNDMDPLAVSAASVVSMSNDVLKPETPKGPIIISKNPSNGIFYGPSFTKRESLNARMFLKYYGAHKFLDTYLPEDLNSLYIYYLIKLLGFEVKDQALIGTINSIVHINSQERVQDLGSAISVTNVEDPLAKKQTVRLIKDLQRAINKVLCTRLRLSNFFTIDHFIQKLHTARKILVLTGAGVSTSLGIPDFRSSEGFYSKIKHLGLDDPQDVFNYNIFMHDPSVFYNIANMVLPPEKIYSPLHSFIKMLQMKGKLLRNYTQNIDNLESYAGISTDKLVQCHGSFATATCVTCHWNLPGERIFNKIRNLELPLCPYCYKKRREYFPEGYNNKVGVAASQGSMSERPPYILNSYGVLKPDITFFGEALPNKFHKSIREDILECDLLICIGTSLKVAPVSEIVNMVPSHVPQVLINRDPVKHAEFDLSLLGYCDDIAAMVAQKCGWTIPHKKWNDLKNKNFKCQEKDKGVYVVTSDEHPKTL
Experimental: To investigate whether these compounds could stimulate sirtuins in vivo, we utilized S. cerevisiae, an organism in which the upstream regulators and downstream targets of Sir2 are relatively well understood.
His6-tagged recombinant SIRT1 and GST-tagged recombinant Sir2 were prepared as previously described^26. From 0.1 to 1 μg of SIRT1 and 1.5 μg of Sir2 were used per deacetylation assay (in 50 μl total reaction) as previously described^26. SIRT1 assays and certain of those for Sir2 employed the p53-382 acetylated substrate (‘Fluor de Lys-SIRT1’, BIOMOL) rather than FdL.
Themed compound libraries (BIOMOL) were used for primary and secondary screening. […] For water soluble compounds and negative controls, 1% v/v DMSO was added to the assay. […] HeLa cells were grown and the cellular deacetylation assays were performed and read, as above, but in full-volume 96-well microplates (Corning Costar 3595). […] Calculation of net fluorescence increases included subtraction of a blank value, which in the case of Sir2 was obtained by omitting the enzyme from the reaction and in the case of SIRT1 by adding an inhibitor (200 μM suramin or 1 mM nicotinamide) to the reaction prior to the acetylated substrate. […]

rDNA silencing = experiment: Ribosomal DNA silencing assay (URA3 reporter); format: cell-based, S. cerevisiae
Experimental: Ribosomal DNA silencing assays using the URA3 reporters were performed as previously described^26. Ribosomal DNA recombination frequencies were determined by plating W303AR cells^37 on YPD medium with low adenine/histidine and counting the fraction of half-red sectored colonies using Bio-Rad Quantity One software as previously described^35. At least 6000 cells were analyzed per experiment and all experiments were performed in triplicate. All strains were pre-grown for 15 hours with the relevant compound prior to plating.

[1] = D. melanogaster body mass; format: in vivo; details: 10 μM, 15% SY diet
Experimental: Feeding rate was measured in yw females with the crop-filling assay^27. […] The presence of dye-marked food in the crop was scored in sets of 20 females across five 5-minute intervals. […] Males and females were weighed daily.

[2] = system: lysine 382 of p53 in U2OS osteosarcoma cells; experiment: p53 Ac-K382 Western blot after UV radiation; format: cell-based, human

Oc1ccc(/C=C/c2cc(O)cc(O)c2)cc1 [Resveratrol, 3,5,4′-Trihydroxy-trans-stilbene]
lifespan extension (C. elegans; sir-2.1 mutants, 100 μM, heat-killed OP50, not statistically significant): 5.2%
lifespan extension (C. elegans; sir-2.1 mutants, 100 μM, live OP50, P=0.81): 3.3%
lifespan extension (C. elegans; wild-type N2, 100 μM, live OP50): 12.6%
lifespan extension (up to) (C. elegans; wild-type worms, 100 μM, heat-killed or live E. coli): up to 15%
Survival of 293 cells (Human 293 cells; 0 h): 100%
Survival of 293 cells (Human 293 cells; 48 h): 5%
Survival of 293 cells (Human 293 cells; 96 h): 0%
lifespan increase (up to) (D. melanogaster; Canton-S/dSir2^KG0087): up to 17%
lifespan in flies lacking or severely decreased in dSir2 (D. melanogaster; dSir2^4.5/dSir2^5.26 or dSir2^17/dSir2^KG00871, 100 μM): failed to extend lifespan
longevity increase in flies homozygous for a hypomorphic dSir2 allele (D. melanogaster; dSir2^KG0087/dSir2^KG0087): small but statistically significant amount
longevity on restricted diet (D. melanogaster; restricted diet): neither resveratrol nor fisetin further increased longevity
lifespan extension (up to) (D. melanogaster; wild type, males and females, independent tests): up to 29%
reduction of the frequency of rDNA recombination (rDNA recombination): ~60%
concentrations at which inhibition of Sir2 was seen (recombinant GST-Sir2): greater than 100 μM
effect on rDNA silencing (rDNA silencing): only minor effects
body weight [1]: normal weight
level of Ac-K382 compared to untreated cells ([2]; 0.5 μM resveratrol, 4 hours pre-treatment, UV radiation): marked decrease
level of Ac-K382 at higher concentrations ([2]; >50 μM resveratrol): the effect was reversed
